For this experiment, the target named is T1, human PD-1 / PD-L1-Ig binding on Jurkat cell line over-expressing human PD-1 (Jurkat-PD-1) (Homo sapiens, UniProt Q15116).
T1 construct: expressed in transfected cells; host or cells: Jurkat
Nature of the experiment: Jurkat-PD-1 Cell Binding High-Content Screening Assay (CBA). The note with it: Jurkat-PD-1 cells, PE-labeled PD-L1-Ig 20 nM final; read-out: Jurkat HPD1_PDL1 IC50. Type of experiment: cell-based. On the procedure:
Example 3. Jurkat-PD-1 Cell Binding High-Content Screening Assay (CBA)
Jurkat-PD-1 Cell Binding High-Content Screening Assay (CBA). Phycoerythrin (PE) was covalently linked to the Ig epitope tag of human PD-L1-Ig and fluorescently-labeled PD-L1-Ig was used for binding studies with a Jurkat cell line over-expressing human PD-1 (Jurkat-PD-1). Briefly, 8×10^3 Jurkat-hPD-1 cells were seeded into 384 well plates in 20 μl of DMEM supplemented with 10% fetal calf serum. 100 nL of compound was added to cells followed by incubation at 37° C. for 2 h. Then, 5 μl of PE-labeled PD-L1-Ig (20 nM final), diluted in DMEM supplemented with 10% fetal calf serum. After 1 hour incubation, cells were fixed with 4% paraformaldehyde in dPBS containing 10 μg/ml Hoechst 33342 and then washed 3x in 100 μl dPBS. Data was collected and processed using a Cell Insight NXT High Content Imager and associated software.

Structures are written as SMILES. Where a SMILES comes first, the peptide text is derived from it. Bridges are numbered along the chain shown (N, C = ends). [ ]: non-standard residue; d: D form. The star is where a group is joined. ξ: configuration not given here. Phe(4-COOH) = N[C@@H](Cc1ccc(C(=O)O)cc1)C(=O)O; Bip = N[C@@H](Cc1ccc(-c2ccccc2)cc1)C(=O)O; Phe(4-CN) = N#Cc1ccc(C[C@H](N)C(=O)O)cc1; Phe(3-Me) = Cc1cccc(C[C@H](N)C(=O)O)c1; Phe(2-F) = N[C@@H](Cc1ccccc1F)C(=O)O; 3Pal = N[C@@H](Cc1cccnc1)C(=O)O; 4Pal = N[C@@H](Cc1ccncc1)C(=O)O; 2Thi = N[C@@H](Cc1cccs1)C(=O)O; Cha = N[C@@H](CC1CCCCC1)C(=O)O; Cit = NC(=O)NCCC[C@H](N)C(=O)O; Ile(3ξ) = CCC(C)[C@H](N)C(=O)O; Thr(3ξ) = CC(O)[C@H](N)C(=O)O; Phg = N[C@H](C(=O)O)c1ccccc1; Carboxymethyl = O=C(O)C*; Nle = CCCC[C@H](N)C(=O)O; Orn = NCCC[C@H](N)C(=O)O; Dab = NCC[C@H](N)C(=O)O; Dap = NC[C@H](N)C(=O)O

T1 sequence (Q15116 25-288): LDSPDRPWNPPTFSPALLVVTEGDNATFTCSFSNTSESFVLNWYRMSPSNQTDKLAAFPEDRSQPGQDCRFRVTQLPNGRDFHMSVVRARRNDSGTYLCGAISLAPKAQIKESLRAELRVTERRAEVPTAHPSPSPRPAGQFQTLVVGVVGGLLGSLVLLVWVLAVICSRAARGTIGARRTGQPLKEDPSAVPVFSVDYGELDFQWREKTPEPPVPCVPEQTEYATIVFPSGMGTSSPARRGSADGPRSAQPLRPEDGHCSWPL

The term IC50 denotes the concentration needed to halve the response being measured. Turning to `CC(C)C[C@H]1NC(=O)[C@H](CCCN)NC(=O)[C@H](CCC(=O)O)NC(=O)[C@H](Cc2ccc(-c3ccccc3)cc2)NC(=O)[C@H](C(C)C)NC(=O)[C@H](Cc2c[nH]c3ccccc23)NC(=O)[C@H](CC(=O)O)NC(=O)[C@H](Cc2ccc(-c3ccc(C(=O)O)cc3)cc2)NC(=O)[C@H](Cc2ccncc2)NC(=O)CSC[C@@H](C(=O)N[C@@H](C)C(N)=O)NC(=O)[C@H]([C@@H](C)O)NC(=O)[C@H](C(C)C)NC(=O)[C@H](CC2CCCCC2)NC(=O)[C@H](CCN)NC1=O` [Compound 2169], the half-inhibitory concentration (IC50) turned out to be 40.8 nM. The result for `CC(C)C[C@H]1NC(=O)[C@H](CCCN)NC(=O)[C@H](CCC(=O)O)NC(=O)[C@H](Cc2ccc(-c3ccccc3)cc2)NC(=O)[C@H](C(C)C)NC(=O)[C@H](Cc2ccccc2F)NC(=O)[C@H](CC(=O)O)NC(=O)[C@H](Cc2ccc(C#N)cc2)NC(=O)[C@H](Cc2ccccc2)NC(=O)CSC[C@@H](C(=O)N[C@@H](C)C(N)=O)NC(=O)[C@H]([C@@H](C)O)NC(=O)[C@H](C(C)C)NC(=O)[C@H](CC2CCCCC2)NC(=O)[C@H](CCN)NC1=O` [Compound 2213] ({CH2CO}-F[Phe(4-CN)]D[Phe(2-F)]V[Bip]E[Orn][dL][Dab][Cha]VTCA-NH2; thioether N-14) reads 59.2 nM. As for `CC(C)C[C@@H]1NC(=O)[C@H](Cc2c[nH]c3ccccc23)NC(=O)[C@H](CC(=O)O)NC(=O)[C@H](Cc2ccc(O)cc2)NC(=O)[C@H](Cc2ccccc2)NC(=O)CSC[C@@H](C(=O)N[C@@H](C)C(N)=O)NC(=O)[C@H](CO)NC(=O)[C@H](C(C)C)NC(=O)[C@H](CC(C)C)NC(=O)[C@H](CCN)NC(=O)[C@@H](CC(C)C)NC(=O)[C@H](CCN)NC(=O)[C@H](CCC(=O)O)NC(=O)[C@H](Cc2ccc(-c3ccccc3)cc2)NC1=O` [Compound 1229] ({CH2CO}-FYDWL[Bip]E[Dab][dL][Dab]LVSCA-NH2; thioether N-14), the half-inhibitory concentration (IC50) came out at 14.5 nM. The result for `CC(C)C[C@H]1NC(=O)[C@H](CCCN)NC(=O)[C@H](CCC(=O)O)NC(=O)[C@H](Cc2ccc(-c3ccccc3)cc2)NC(=O)[C@H](C(C)C)NC(=O)[C@H](Cc2cccs2)NC(=O)[C@H](CC(=O)O)NC(=O)[C@H](Cc2ccncc2)NC(=O)[C@H](Cc2ccc(OCC(=O)O)cc2)NC(=O)CSC[C@@H](C(=O)N[C@@H](C)C(N)=O)NC(=O)[C@H]([C@@H](C)O)NC(=O)[C@H](C(C)C)NC(=O)[C@H](CC2CCCCC2)NC(=O)[C@H](CCN)NC1=O` [Compound 2202] ({CH2CO}-Y(Carboxymethyl)[4Pal]D[2Thi]V[Bip]E[Orn][dL][Dab][Cha]VTCA-NH2; thioether N-14) reads 26.5 nM; that for `CCCC[C@@H]1NC(=O)[C@H](CCN)NC(=O)[C@@H](CC(C)C)NC(=O)[C@H](CCCN)NC(=O)[C@H](CCCNC(N)=O)NC(=O)[C@H](Cc2ccc(-c3ccccc3)cc2)NC(=O)[C@H](C(C)C)NC(=O)[C@H](Cc2cccc(C)c2)NC(=O)[C@H](CC(=O)O)NC(=O)[C@H](Cc2ccc(C(=O)O)cc2)NC(=O)[C@H](Cc2ccncc2)NC(=O)CSC[C@@H](C(=O)N[C@@H](C)C(N)=O)NC(=O)[C@H]([C@@H](C)O)NC(=O)[C@H](C(C)C)NC1=O` [Compound 1189] ({CH2CO}-[4Pal][Phe(4-COOH)]D[Phe(3-Me)]V[Bip][Cit][Orn][dL][Dab][Nle]VTCA-NH2; thioether N-14), 17.7 nM.

On to `CCC(C)[C@@H]1NC(=O)[C@H](Cc2ccc(-c3ccccc3)cc2)NC(=O)[C@H](C(C)C)NC(=O)[C@H](Cc2c[nH]c3ccccc23)NC(=O)[C@H](CC(=O)O)NC(=O)[C@H](Cc2cccnc2)NC(=O)[C@H](CC(N)=O)NC(=O)CSC[C@@H](C(=O)N[C@@H](C)C(N)=O)NC(=O)[C@H]([C@@H](C)O)NC(=O)[C@H](C(C)C)NC(=O)[C@H](CC2CCCCC2)NC(=O)[C@H](CCN)NC(=O)[C@@H](CC(C)C)NC(=O)[C@H](CCCN)NC1=O` (stereo partly drawn) [Compound 2228] ({CH2CO}-N[3Pal]DWV[Bip][Ile(3ξ)][Orn][dL][Dab][Cha]VTCA-NH2; thioether N-14), for which the IC50 turned out to be 16.1 nM. In the case of `CC[C@H](C)[C@@H]1NC(=O)[C@H](Cc2ccc(-c3ccccc3)cc2)NC(=O)[C@H](C(C)C)NC(=O)[C@H](Cc2c[nH]c3ccccc23)NC(=O)[C@H](CC(=O)O)NC(=O)[C@H](Cc2ccc(O)cc2)NC(=O)[C@H](Cc2ccccc2)NC(=O)CSC[C@@H](C(=O)N[C@@H](C)C(N)=O)NC(=O)[C@H]([C@@H](C)O)NC(=O)[C@H](C(C)C)NC(=O)[C@H](CC2CCCCC2)NC(=O)[C@H](CCCNC(=N)N)NC(=O)[C@@H](CC(C)C)NC(=O)[C@H](CCCN)NC1=O` [Compound 1148] ({CH2CO}-FYDWV[Bip]I[Orn][dL]R[Cha]VTCA-NH2; thioether N-14) it was 51 nM. As for `CCC(C)[C@@H]1NC(=O)[C@H](Cc2ccc(-c3ccccc3)cc2)NC(=O)[C@H](C(C)C)NC(=O)[C@H](Cc2cccc(C)c2)NC(=O)[C@H](CC(=O)O)NC(=O)[C@H](Cc2ccc(C(=O)O)cc2)NC(=O)[C@H](Cc2ccncc2)NC(=O)CSC[C@@H](C(N)=O)NC(=O)[C@H](CCC(N)=O)NC(=O)[C@H](C(C)C)NC(=O)[C@H](CC2CCCCC2)NC(=O)[C@H](CCN)NC(=O)[C@@H](CC(C)C)NC(=O)[C@H](CCCN)NC1=O` (stereo partly drawn) [Compound 2280] ({CH2CO}-[4Pal][Phe(4-COOH)]D[Phe(3-Me)]V[Bip][Ile(3ξ)][Orn][dL][Dab][Cha]VQC-NH2; thioether N-14), the IC50 came to 40.9 nM. The result for `CC(C)C[C@H]1NC(=O)[C@H](CCCN)NC(=O)[C@H](C(C)C)NC(=O)[C@H](Cc2ccc(-c3ccccc3)cc2)NC(=O)[C@H](C(C)C)NC(=O)[C@H](Cc2c[nH]c3ccccc23)NC(=O)[C@H](CC(=O)O)NC(=O)[C@H](Cc2ccc(OCC(=O)O)cc2)NC(=O)[C@H](C(C)O)NC(=O)CSC[C@@H](C(N)=O)NC(=O)[C@H](C(C)O)NC(=O)[C@H](C(C)C)NC(=O)[C@H](CC2CCCCC2)NC(=O)[C@H](CCN)NC1=O` (stereo partly drawn) [Compound 2599] ({CH2CO}-[Thr(3ξ)]Y(Carboxymethyl)DWV[Bip]V[Orn][dL][Dab][Cha]V[Thr(3ξ)]C-NH2; thioether N-14) reads 17.8 nM; that for `CC(C)C[C@H]1NC(=O)[C@H](CCCN)NC(=O)[C@H](CCCNC(N)=O)NC(=O)[C@H](Cc2ccc(-c3ccccc3)cc2)NC(=O)[C@H](c2ccccc2)NC(=O)[C@H](Cc2c[nH]c3ccccc23)NC(=O)[C@H](CC(=O)O)NC(=O)[C@H](Cc2ccc(OCC(=O)O)cc2)NC(=O)[C@H](CN)NC(=O)CSC[C@@H](C(=O)N[C@@H](C)C(N)=O)NC(=O)[C@H]([C@@H](C)O)NC(=O)[C@H](C(C)C)NC(=O)[C@H](CC2CCCCC2)NC(=O)[C@H](CCN)NC1=O` [Compound 1359] ({CH2CO}-[Dap]Y(Carboxymethyl)DW[Phg][Bip][Cit][Orn][dL][Dab][Cha]VTCA-NH2; thioether N-14), 7.9 nM. The result for `CC(C)C[C@H]1NC(=O)[C@H](CCCN)NC(=O)[C@H](CCC(=O)O)NC(=O)[C@H](Cc2ccc(-c3ccccc3)cc2)NC(=O)[C@H](C(C)C)NC(=O)[C@H](Cc2ccccc2F)NC(=O)[C@H](CC(=O)O)NC(=O)[C@H](Cc2ccncc2)NC(=O)[C@H](CC(N)=O)NC(=O)CSC[C@@H](C(=O)N[C@@H](C)C(N)=O)NC(=O)[C@H]([C@@H](C)O)NC(=O)[C@H](C(C)C)NC(=O)[C@H](CC2CCCCC2)NC(=O)[C@H](CCN)NC1=O` [Compound 2207] ({CH2CO}-N[4Pal]D[Phe(2-F)]V[Bip]E[Orn][dL][Dab][Cha]VTCA-NH2; thioether N-14) reads 34.4 nM.
